Laboratory results: PubChem BioAssay (NCI)
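Growth conditions: 96-well plates. Treatment: test compound, 48 hours, 5 concentrations. Analysis: linear interpolation between bracketing concentrations; unreached endpoints set to highest concentration. The concentration for full growth arrest is given as TGI.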

System: SNB-19 CNS
Assay: NCI-60 cell line screen, 48 h

Row | Structure (SMILES) | TGI
1 | O=c1[nH][nH]c(=O)n1Cc1ccccc1Cn1c(=O)[nH][nH]c1=O | > 100 µM
2 | CCNC(=S)N/N=C/c1cc([N+](=O)[O-])ccc1O | > 100 µM
3 | CCOC(=O)c1c2ccccc2n2c(N)c(C(N)=O)nnc12 | 91.8 µM
4 | Cc1cc(N(CCC#N)CCC#N)ccc1/C(N=Nc1ccc(Cl)cc1)=N\NC(=O)c1ccccc1 | > 100 µM
5 | CCc1ccc(CCN2CCCCC2)nc1 | > 100 µM
6 | CNC(=O)C(C)C1CCC2(C)C=CC(=O)C(C)=C2C1O (stereo not drawn) | > 100 µM
7 | O=C(NNC(=O)c1ccccc1SSc1ccccc1C(=O)NNC(=O)c1ccccc1S)c1ccccc1S | > 100 µM
8 | CCOC(=O)C(NC(C)=O)(Nc1ccc(F)cc1)C(F)(F)F (stereo not drawn) | > 100 µM
9 | CCOc1cc2c(cc1O)/C(=N\OC)C[C@@H]1[C@@H]2CC[C@]2(C)[C@@H](O)CC[C@@H]12 | > 100 µM
10 | O=C1/C(=C/c2ccc(O)cc2)CC/C1=C\c1ccc(O)cc1 | > 100 µM
11 | CC(C)C1/C(=N/O)CC(c2ccccc2)N(N=O)C1c1ccccc1 (stereo not drawn) | > 100 µM
12 | CC1(C)N=C(/C(Cl)=[N+](/[O-])C(=O)c2ccc(F)cc2)C(C)(C)N1O | > 100 µM
13 | COC(=O)[C@H](Cc1c[nH]c2ccccc12)NP(=O)(O)OCC1C=CC(n2cc(C)c(=O)[nH]c2=O)O1 (stereo partly drawn) | > 100 µM
14 | COc1cc(/C=C2\S/C(=N/Nc3nc(-c4ccc(Br)cc4)cs3)NC2=O)cc(OC)c1OC | 67.7 µM
15 | O=C(Nc1ccc(C2=NCCN2)cc1)c1cncc(C(=O)Nc2ccc(C3=NCCN3)cc2)c1 | > 100 µM
16 | Clc1ccc(/C=C/c2nc3ccccc3s2)cc1Cl | > 100 µM
17 | CCC1(O)CC2CC(=O)OC2C1O (stereo not drawn) | > 100 µM
18 | Cc1ccc(SCC(CSCCO)OCn2cnc3c2NC(N)=NC32OCCO2)cc1 (stereo not drawn) | > 100 µM
19 | C(/c1ccco1)=c1/nc(-c2ccccc2)n2c1nc1ccccc12 | > 100 µM

Row | Structure (SMILES) | TGI
20 | COC(=O)C1CCC(=O)N1C(c1ccccc1)c1ccc(OC)c(OC)c1 (stereo not drawn) | > 100 µM
21 | Oc1cccc2c(Cl)ccnc12 | > 100 µM
22 | Cc1cccc(/C=N/NC(=S)Nc2ccccc2)n1 | 98.3 µM
23 | N#CC1=C(N)N(c2ccccc2)C(c2ccco2)C1(C#N)C#N (stereo not drawn) | 71.4 µM
24 | Cc1cc(=O)[nH]c(NN2C(Cl)C(=O)C2c2ccccc2O)n1 (stereo not drawn) | > 100 µM
25 | COc1ccc(/C=C2\CCC(C)C3=C2NC(=S)NC3c2ccc(OC)c(OC)c2)cc1OC (stereo not drawn) | > 31.6 µM
26 | COc1ccc2c(=O)c(O)c(-c3ccc(OC)c(OC)c3)oc2c1 | > 100 µM
27 | CC(C)CCCCCCCCCCCCC(=O)NCC(=O)NC1C(C)OC(Nc2ncnc3c2ncn3C)C(O)C1O (stereo not drawn) | > 31 µM
28 | COc1ccc(CNc2nc(NCc3ccc(OC)c(OC)c3)nc(NC3CCCCC3)n2)cc1 | > 100 µM
29 | C=C(C1=CC(=O)C(C)(C)O1)[C@@H]1CC=C([C@@H]2CC[C@H]3[C@@]2(C)CC[C@H]2C(C)(C)C(=O)[C@H](O)C[C@]32C)[C@H](O)O1 | 24.8 µM
30 | Cc1cn(C2CC(n3cc(Cn4cc(I)c(=O)[nH]c4=O)nn3)C(CO)O2)c(=O)[nH]c1=O (stereo not drawn) | > 100 µM
31 | CNC(=O)OCC1=C(COC(=O)NC)C(C)N(c2ccc(OC)cc2)C1 (stereo not drawn) | > 100 µM
32 | c1ccc(N=C2SC3=Nc4cccc5cccc(c45)N3C2=Nc2ccccc2)cc1 | > 100 µM
33 | O=C1CCC(=O)N1n1c(Cc2ccccc2)n[nH]c1=O | > 100 µM
34 | O=C(O)CN(CC(=O)O)C1CCCCC1N(CC(=O)O)CC(=O)NCCN=C=S (stereo not drawn) | > 100 µM
35 | Cc1nc(C(N)=S)sc1/C(CC(=O)C(=O)Nc1cccc2ccc(O)cc12)=N\NC(=O)c1ccncc1 | > 100 µM
36 | Cc1cn(C2CC(N(O)C(N)=O)C(CO)O2)c(=O)[nH]c1=O (stereo not drawn) | > 100 µM
37 | O=C1CCC23CC(C=CC=C12)n1c(=O)n(-c2ccccc2)c(=O)n13 (stereo not drawn) | > 100 µM
38 | CC1=C(C)[C@@]2(C)O[C@@]2(C)O[C@@]2(C)O[C@@]12C | > 100 µM

System: SN12C renal
Assay: NCI-60 cell line screen, 48 h

Row | Structure (SMILES) | TGI
39 | O=c1[nH][nH]c(=O)n1Cc1ccccc1Cn1c(=O)[nH][nH]c1=O | > 100 µM
40 | CCNC(=S)N/N=C/c1cc([N+](=O)[O-])ccc1O | > 100 µM
41 | CCOC(=O)c1c2ccccc2n2c(N)c(C(N)=O)nnc12 | > 100 µM
42 | Cc1cc(N(CCC#N)CCC#N)ccc1/C(N=Nc1ccc(Cl)cc1)=N\NC(=O)c1ccccc1 | > 100 µM
43 | CC[C@@]1(O)C(=O)OCc2c1cc1n(c2=O)Cc2c-1nc1ccccc1c2/C=N\NC(=O)CN | > 100 µM
44 | CCc1ccc(CCN2CCCCC2)nc1 | > 100 µM
45 | CNC(=O)C(C)C1CCC2(C)C=CC(=O)C(C)=C2C1O (stereo not drawn) | > 100 µM
46 | O=C(NNC(=O)c1ccccc1SSc1ccccc1C(=O)NNC(=O)c1ccccc1S)c1ccccc1S | > 92.6 µM
47 | CCOC(=O)C(NC(C)=O)(Nc1ccc(F)cc1)C(F)(F)F (stereo not drawn) | > 100 µM
48 | CCOc1cc2c(cc1O)/C(=N\OC)C[C@@H]1[C@@H]2CC[C@]2(C)[C@@H](O)CC[C@@H]12 | 48.1 µM
49 | O=C1/C(=C/c2ccc(O)cc2)CC/C1=C\c1ccc(O)cc1 | > 100 µM
50 | CC(C)C1/C(=N/O)CC(c2ccccc2)N(N=O)C1c1ccccc1 (stereo not drawn) | > 100 µM
51 | CC1(C)N=C(/C(Cl)=[N+](/[O-])C(=O)c2ccc(F)cc2)C(C)(C)N1O | 29.2 µM
52 | COC(=O)[C@H](Cc1c[nH]c2ccccc12)NP(=O)(O)OCC1C=CC(n2cc(C)c(=O)[nH]c2=O)O1 (stereo partly drawn) | > 100 µM
53 | COc1cc(/C=C2\S/C(=N/Nc3nc(-c4ccc(Br)cc4)cs3)NC2=O)cc(OC)c1OC | > 100 µM
54 | COC(=O)[C@H]1CO[C@@H](C(C)(C)C)N1C(=O)N1C=CC(=O)C[C@@H]1C | > 100 µM
55 | O=C(Nc1ccc(C2=NCCN2)cc1)c1cncc(C(=O)Nc2ccc(C3=NCCN3)cc2)c1 | > 100 µM
56 | Clc1ccc(/C=C/c2nc3ccccc3s2)cc1Cl | > 100 µM
57 | C(/c1ccco1)=c1/nc(-c2ccccc2)n2c1nc1ccccc12 | > 100 µM
58 | COC(=O)C1CCC(=O)N1C(c1ccccc1)c1ccc(OC)c(OC)c1 (stereo not drawn) | > 100 µM

Row | Structure (SMILES) | TGI
59 | Oc1cccc2c(Cl)ccnc12 | > 55.2 µM
60 | Cc1cccc(/C=N/NC(=S)Nc2ccccc2)n1 | 12.3 µM
61 | N#CC1=C(N)N(c2ccccc2)C(c2ccco2)C1(C#N)C#N (stereo not drawn) | > 100 µM
62 | Cc1cc(=O)[nH]c(NN2C(Cl)C(=O)C2c2ccccc2O)n1 (stereo not drawn) | > 64 µM
63 | COc1ccc(/C=C2\CCC(C)C3=C2NC(=S)NC3c2ccc(OC)c(OC)c2)cc1OC (stereo not drawn) | > 31.6 µM
64 | CC(C)CCCCCCCCCCCCC(=O)NCC(=O)NC1C(C)OC(Nc2ncnc3c2ncn3C)C(O)C1O (stereo not drawn) | > 100 µM
65 | COc1ccc(CNc2nc(NCc3ccc(OC)c(OC)c3)nc(NC3CCCCC3)n2)cc1 | > 100 µM
66 | C=C(C1=CC(=O)C(C)(C)O1)[C@@H]1CC=C([C@@H]2CC[C@H]3[C@@]2(C)CC[C@H]2C(C)(C)C(=O)[C@H](O)C[C@]32C)[C@H](O)O1 | 5.18 µM
67 | Cc1cn(C2CC(n3cc(Cn4cc(I)c(=O)[nH]c4=O)nn3)C(CO)O2)c(=O)[nH]c1=O (stereo not drawn) | > 100 µM
68 | CNC(=O)OCC1=C(COC(=O)NC)C(C)N(c2ccc(OC)cc2)C1 (stereo not drawn) | > 100 µM
69 | c1ccc(N=C2SC3=Nc4cccc5cccc(c45)N3C2=Nc2ccccc2)cc1 | > 100 µM
70 | O=C1CCC(=O)N1n1c(Cc2ccccc2)n[nH]c1=O | > 100 µM
71 | O=C(O)CN(CC(=O)O)C1CCCCC1N(CC(=O)O)CC(=O)NCCN=C=S (stereo not drawn) | > 100 µM
72 | Cc1nc(C(N)=S)sc1/C(CC(=O)C(=O)Nc1cccc2ccc(O)cc12)=N\NC(=O)c1ccncc1 | > 100 µM
73 | Cc1cn(C2CC(N(O)C(N)=O)C(CO)O2)c(=O)[nH]c1=O (stereo not drawn) | > 100 µM
74 | O=C1CCC23CC(C=CC=C12)n1c(=O)n(-c2ccccc2)c(=O)n13 (stereo not drawn) | > 100 µM
75 | O=C(Cc1cccs1)N[C@@H]1C(=O)N2C(C(=O)OC(c3ccccc3)c3ccccc3)=C(CO)CS[C@H]12 | > 100 µM
76 | CC1=C(C)[C@@]2(C)O[C@@]2(C)O[C@@]2(C)O[C@@]12C | > 100 µM
77 | Cc1ccccc1-n1c(=O)c2ncn(CCCl)c2n(-c2ccccc2C)c1=S | > 100 µM

System: CCRF-CEM leukemia
Assay: NCI-60 cell line screen, 48 h

Row | Structure (SMILES) | TGI
78 | O=c1[nH][nH]c(=O)n1Cc1ccccc1Cn1c(=O)[nH][nH]c1=O | > 100 µM
79 | CCNC(=S)N/N=C/c1cc([N+](=O)[O-])ccc1O | 38.6 µM
80 | CCOC(=O)c1c2ccccc2n2c(N)c(C(N)=O)nnc12 | > 100 µM
81 | Cc1cc(N(CCC#N)CCC#N)ccc1/C(N=Nc1ccc(Cl)cc1)=N\NC(=O)c1ccccc1 | > 100 µM
82 | CCc1ccc(CCN2CCCCC2)nc1 | > 100 µM
83 | CNC(=O)C(C)C1CCC2(C)C=CC(=O)C(C)=C2C1O (stereo not drawn) | > 100 µM
84 | O=C(NNC(=O)c1ccccc1SSc1ccccc1C(=O)NNC(=O)c1ccccc1S)c1ccccc1S | 24.4 µM
85 | CCOC(=O)C(NC(C)=O)(Nc1ccc(F)cc1)C(F)(F)F (stereo not drawn) | > 100 µM
86 | CCOc1cc2c(cc1O)/C(=N\OC)C[C@@H]1[C@@H]2CC[C@]2(C)[C@@H](O)CC[C@@H]12 | > 100 µM
87 | O=C1/C(=C/c2ccc(O)cc2)CC/C1=C\c1ccc(O)cc1 | 6.74 µM
88 | CC(C)C1/C(=N/O)CC(c2ccccc2)N(N=O)C1c1ccccc1 (stereo not drawn) | > 100 µM
89 | CC1(C)N=C(/C(Cl)=[N+](/[O-])C(=O)c2ccc(F)cc2)C(C)(C)N1O | 12.8 µM
90 | COC(=O)[C@H](Cc1c[nH]c2ccccc12)NP(=O)(O)OCC1C=CC(n2cc(C)c(=O)[nH]c2=O)O1 (stereo partly drawn) | > 100 µM
91 | COc1cc(/C=C2\S/C(=N/Nc3nc(-c4ccc(Br)cc4)cs3)NC2=O)cc(OC)c1OC | 10.3 µM
92 | COC(=O)[C@H]1CO[C@@H](C(C)(C)C)N1C(=O)N1C=CC(=O)C[C@@H]1C | > 100 µM
93 | O=C(Nc1ccc(C2=NCCN2)cc1)c1cncc(C(=O)Nc2ccc(C3=NCCN3)cc2)c1 | > 100 µM
94 | Clc1ccc(/C=C/c2nc3ccccc3s2)cc1Cl | > 100 µM
95 | CCC1(O)CC2CC(=O)OC2C1O (stereo not drawn) | 25.7 µM
96 | Cc1ccc(SCC(CSCCO)OCn2cnc3c2NC(N)=NC32OCCO2)cc1 (stereo not drawn) | > 100 µM
97 | C(/c1ccco1)=c1/nc(-c2ccccc2)n2c1nc1ccccc12 | 46.8 µM
98 | Oc1cccc2c(Cl)ccnc12 | 2.52 µM
99 | Cc1cccc(/C=N/NC(=S)Nc2ccccc2)n1 | > 23.3 µM
100 | N#CC1=C(N)N(c2ccccc2)C(c2ccco2)C1(C#N)C#N (stereo not drawn) | 43.9 µM
101 | Cc1cc(=O)[nH]c(NN2C(Cl)C(=O)C2c2ccccc2O)n1 (stereo not drawn) | > 100 µM
102 | COc1ccc2c(=O)c(O)c(-c3ccc(OC)c(OC)c3)oc2c1 | > 100 µM
103 | CC(C)CCCCCCCCCCCCC(=O)NCC(=O)NC1C(C)OC(Nc2ncnc3c2ncn3C)C(O)C1O (stereo not drawn) | > 100 µM
